Where no end group is shown, it is not given here.
Molecular target: T1, α2 β1 integrin (Homo sapiens, UniProt P05556+P17301)
T1 construct: Mg^++ -dependent adhesion of platelets, which use the α2 β1 integrin as a collagen specific receptor; endogenous in cells; host or cells: washed 51Cr-labelled platelets
Assay: Mg++-dependent adhesion of 51Cr-labeled platelets to type I collagen substrates, peptide inhibition
Type: cell-based
Method: Platelet Adhesion-Platelets were washed and labeled with ^51 CrO4 as described in detail by Haverstick et al (22). Platelet adhesion to substrate composed of 0.5% BSA or 20 μg/ml of either type I collagen, laminin or fibronectin in polystryene dishes was determined as previously described in detail (7). Alternately, adhesion assays were carried out in 96 well microtiter dishes (Immulon II, Dynatech). In this case substrate coating- and adhesion assay volumes were adjusted to 100 μl and wash volumes were adjusted to 140 μl per well. Platelets were permitted to adhere for 60 min at a concentration of 1.3-- to 1.8×10^8 platelets/ml, then wash five times in adhesion assay buffer before being lysed with two […] aliquots of 2% SDS which were subsequently pooled and counted.
Peptide Inhibition--After labeling and washing, cells were resuspended at 2.6- to 3.6×10^5 /ml for platelets or 2×10^5 /ml for T47D cells. Aliquots were added to equal volumes of buffer containing appropriate concentrations of the peptides and divalent cations and preincubated for 15 min before being added to the adhesive substrates. Adhesion was quantitated as described above.

T1 sequence (P17301 30-1181): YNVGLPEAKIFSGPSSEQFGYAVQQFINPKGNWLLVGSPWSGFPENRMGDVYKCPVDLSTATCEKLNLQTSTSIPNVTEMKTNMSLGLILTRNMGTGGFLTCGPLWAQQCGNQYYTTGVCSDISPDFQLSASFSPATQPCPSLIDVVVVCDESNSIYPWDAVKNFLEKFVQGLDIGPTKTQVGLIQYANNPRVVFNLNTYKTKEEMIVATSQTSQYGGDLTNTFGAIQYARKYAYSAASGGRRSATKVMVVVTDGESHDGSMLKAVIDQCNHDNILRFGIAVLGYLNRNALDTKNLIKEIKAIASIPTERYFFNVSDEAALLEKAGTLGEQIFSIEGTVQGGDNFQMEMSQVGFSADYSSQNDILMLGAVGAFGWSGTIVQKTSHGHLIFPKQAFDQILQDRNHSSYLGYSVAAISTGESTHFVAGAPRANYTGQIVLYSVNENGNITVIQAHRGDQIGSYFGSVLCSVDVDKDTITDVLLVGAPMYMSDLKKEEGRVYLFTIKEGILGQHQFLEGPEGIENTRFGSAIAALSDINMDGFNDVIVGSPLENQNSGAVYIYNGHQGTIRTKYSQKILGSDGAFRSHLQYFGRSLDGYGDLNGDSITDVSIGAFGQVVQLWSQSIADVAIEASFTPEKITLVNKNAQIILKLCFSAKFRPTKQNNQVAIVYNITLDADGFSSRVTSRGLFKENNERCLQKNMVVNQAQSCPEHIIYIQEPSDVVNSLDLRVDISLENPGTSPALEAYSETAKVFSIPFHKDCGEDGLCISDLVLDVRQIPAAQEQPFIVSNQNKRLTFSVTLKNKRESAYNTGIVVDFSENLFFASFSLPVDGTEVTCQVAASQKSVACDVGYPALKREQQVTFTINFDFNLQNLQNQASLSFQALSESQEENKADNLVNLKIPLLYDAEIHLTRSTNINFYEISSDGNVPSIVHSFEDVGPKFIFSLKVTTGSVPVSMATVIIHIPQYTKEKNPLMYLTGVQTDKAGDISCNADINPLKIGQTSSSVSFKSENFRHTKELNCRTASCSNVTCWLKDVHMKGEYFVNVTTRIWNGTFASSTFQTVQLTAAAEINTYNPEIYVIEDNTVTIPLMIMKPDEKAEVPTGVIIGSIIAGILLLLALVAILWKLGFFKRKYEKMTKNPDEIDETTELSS
T1 sequence (P05556 21-798): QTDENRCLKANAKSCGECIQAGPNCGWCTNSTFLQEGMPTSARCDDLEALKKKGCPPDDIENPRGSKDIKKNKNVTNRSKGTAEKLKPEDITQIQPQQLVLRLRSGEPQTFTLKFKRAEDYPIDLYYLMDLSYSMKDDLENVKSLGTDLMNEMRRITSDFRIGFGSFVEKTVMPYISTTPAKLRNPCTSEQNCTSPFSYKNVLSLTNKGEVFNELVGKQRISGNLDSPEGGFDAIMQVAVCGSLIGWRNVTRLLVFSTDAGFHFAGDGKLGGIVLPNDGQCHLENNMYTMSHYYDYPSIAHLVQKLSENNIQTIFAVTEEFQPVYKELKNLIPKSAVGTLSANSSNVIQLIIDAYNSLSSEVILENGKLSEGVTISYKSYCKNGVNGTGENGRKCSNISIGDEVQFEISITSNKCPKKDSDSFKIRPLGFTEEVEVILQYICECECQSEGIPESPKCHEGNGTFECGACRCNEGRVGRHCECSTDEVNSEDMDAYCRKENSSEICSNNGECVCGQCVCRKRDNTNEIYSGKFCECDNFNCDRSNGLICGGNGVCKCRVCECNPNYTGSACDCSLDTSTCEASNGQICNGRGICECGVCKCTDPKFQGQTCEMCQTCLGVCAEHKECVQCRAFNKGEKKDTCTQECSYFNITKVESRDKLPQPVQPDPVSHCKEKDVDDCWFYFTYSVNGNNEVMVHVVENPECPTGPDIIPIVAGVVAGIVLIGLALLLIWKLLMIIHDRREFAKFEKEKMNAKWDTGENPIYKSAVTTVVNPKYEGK

KDGEA-NH2 [KDGEA]
Inhibitory activity in 1 mM Mg++ as percent of the activity observed in 6 mM Mg++ (1 mM Mg++ versus 6 mM Mg++): 80% | Inhibition of Mg++-dependent platelet adhesion to collagen (4 mM peptide, 2 mM Mg++): 80%

GPAGKDGEAGAQG-NH2 [peptide 430, GPAGKDGEAGAQG]
IC50 (read-out: Half-maximal inhibition of Mg++-dependent platelet adhesion to collagen): 2800 µM
